Measured values as given in patent US20080153886A1, “Use Of Heterocyclic Compounds As Neurogenic Agents” (NEUROPHARMA, S.A., priority 2005, published 2008).

System: Neurospheres of the cerebral cortex and hippocampus of 2-day-old postnatal rats
Test: Neurosphere differentiation test (immunofluorescence with anti-GFAP / anti-MAP2 antibodies)
Format: cell-based, rat
Settings: neurospheres grown 7 days in suspension with compound, 24 h on polylysine slides; versus basal (no compound); confocal images
Protocol: Neurospheres of the cerebral cortex and hippocampus of 2-day-old postnatal rats were grown in suspension culture for 7 days in the presence or absence of a formula (I) compound according to the invention, after which they were transferred to slides covered with polylysine and 24 h later (once adhered) immunofluorescence analyses were performed with anti-GFAP antibodies to view the astrocyte differentiation, or with anti-MAP2 to view neuronal differentiation. The images were captured on a TCS SP2 confocal microscope (Leica Microsystems).

Structure (SMILES)	astrocyte differentiation of cells present in isolated neurospheres (anti-GFAP immunofluorescence)	neuronal differentiation of cells present in isolated neurospheres (anti-MAP2 immunofluorescence)
O=c1sn(C(c2ccccc2)c2ccccc2)c(=O)n1Cc1ccccc1 [compound [3], 2-Benzhydryl-4-benzyl-[1,2,4]thiadiazolidine-3,5-dione]	induces	induces
O=c1sn(-c2ccc(Oc3ccccc3)cc2)c(=O)n1Cc1ccccc1 [compound [4], 4-benzyl-2-(4-phenoxy-phenyl)-[1,2,4]thiadiazolidine-3,5-dione]	induces	induces
O=c1sn(-c2cccc3ccccc23)c(=O)n1Cc1ccccc1 [compound [2], 4-benzyl-2-naphthalene-1-yl-[1,2,4]thiadiazolidine-3,5-dione]	induces	induces
O=c1sn(Cc2ccccc2)c(=O)n1Cc1ccccc1 [compound [1], 2,4-dibenzyl-[1,2,4]thiadiazolidine-3,5-dione]	induces	induces
